Laboratory results: US20210101874A1, “MICROBIOCIDAL OXADIAZOLE DERIVATIVES” (SYNGENTA PARTICIPATIONS AG, priority 2017, published 2021)

Tests used:
[1] = test system: Glomerella lagenarium (Colletotrichum lagenarium); experiment: Glomerella lagenarium (Colletotrichum lagenarium) liquid culture / cucumber / preventative (anthracnose); format: cell-based; conditions: Colletotrichum orbiculare; 20 ppm in the applied formulation; conidia in PDB nutrient broth, 24° C.; 3 to 4 days after application; compared to untreated; read-out: disease control (inhibition of growth measured photometrically)
Description: Mycelia fragments or conidia suspensions of a fungus prepared either freshly from liquid cultures of the fungus or from cryogenic storage, are directly mixed into nutrient broth. DMSO solutions of the test compound (max. 10 mg/ml) are diluted with 0.025% Tween20 by a factor of 50 and 10 µl of this solution is pipetted into a microtiter plate (96-well format). The nutrient broth containing the fungal spores/mycelia fragments is then added to give an end concentration of the tested compound. The test plates are incubated in the dark at 24° C. and 96% relative humidity. The inhibition of fungal growth is determined photometrically after 2 to 7 days, depending on the pathosystem, and percent antifungal activity relative to the untreated check is calculated. Conidia of the fungus from cryogenic storage are directly mixed into nutrient broth (PDB—potato dextrose broth). After placing a (DMSO) solution of test compound into a microtiter plate (96-well format), the nutrient broth containing the fungal spores is added. The test plates are incubated at 24° C. and the inhibition of growth is measured photometrically 3 to 4 days after application. The following compounds at 20 ppm in the applied formulation give at least 80% disease control in this test when compared to untreated control under the same conditions, which show extensive disease development.

[2] = test system: Puccinia recondita f. sp. Tritici; experiment: Puccinia recondita f. sp. tritici / wheat / leaf disc preventative (brown rust); format: in vivo; conditions: foliar, 200 ppm in the applied formulation, wheat leaf segments cv. Kanzler, inoculated 1 day after application, compared to untreated, assessed 7 to 9 days after application, read-out: disease control
Description: Leaf disks or leaf segments of various plant species are cut from plants grown in a greenhouse. The cut leaf disks or segments are placed in multiwell plates (24-well format) onto water agar. The leaf disks are sprayed with a test solution before (preventative) or after (curative) inoculation. Compounds to be tested are prepared as DMSO solutions (max. 10 mg/ml) which are diluted to the appropriate concentration with 0.025% Tween20 just before spraying. The inoculated leaf disks or segments are incubated under defined conditions (temperature, relative humidity, light, etc.) according to the respective test system. A single evaluation of disease level is carried out 3 to 14 days after inoculation, depending on the pathosystem. Percent disease control relative to the untreated check leaf disks or segments is then calculated. Wheat leaf segments cv. Kanzler were placed on agar in multiwell plates (24-well format) and sprayed with the formulated test compound diluted in water. The leaf disks were inoculated with a spore suspension of the fungus 1 day after application. The inoculated leaf segments were incubated at 19° C. and 75% relative humidity (rh) under a light regime of 12 hours light/12 hours darkness in a climate cabinet and the activity of a compound was assessed as percent disease control compared to untreated when an appropriate level of disease damage appears in untreated check leaf segments (7 to 9 days after application). The following compounds at 200 ppm in the applied formulation give at least 80% disease control in this test when compared to untreated control leaf disks under the same conditions, which show extensive disease development.

## O=S(=O)(Cc1ccccc1)N(Cc1ccc(-c2noc(C(F)(F)F)n2)cc1)C1CC1 [Compound 1.4, N-cyclopropyl-1-phenyl-N-[[4-[5-(trifluoromethyl)-1,2,4-oxadiazol-3-yl]phenyl]methyl] methanesulfonamide]
[1]
  inhibition at 20 ppm: ≥ 80%

## CCNS(=O)(=O)N(Cc1ccc(-c2noc(C(F)(F)F)n2)cc1)OC [Compound 1.18, 3-[4-[[ethylsulfamoyl (methoxy)amino]methyl]phenyl]-5-(trifluoromethyl)-1,2,4-oxadiazole]
[2]
  pest or weed control at 200 ppm: ≥ 80%
[1]
  inhibition at 20 ppm: ≥ 80%

## CCCNS(=O)(=O)N(Cc1ccc(-c2noc(C(F)(F)F)n2)cc1)OC [Compound 1.22, 3-[4-[[methoxy (propylsulfamoyl)amino]methyl]phenyl]-5-(trifluoromethyl)-1,2,4-oxadiazole]
[2]
  pest or weed control at 200 ppm: ≥ 80%
[1]
  inhibition at 20 ppm: ≥ 80%

## CCN(Cc1ccc(-c2noc(C(F)(F)F)n2)cc1)S(=O)(=O)c1ccccc1 [Compound 1.24, N-ethyl-N-[[4-[5-(trifluoromethyl)-1,2,4-oxadiazol-3-yl]phenyl]methyl] benzenesulfonamide]
[1]
  inhibition at 20 ppm: ≥ 80%

## CCCN(Cc1ccc(-c2noc(C(F)(F)F)n2)cc1)S(=O)(=O)CCC [Compound 1.26, N-propyl-N-[[4-[5-(trifluoromethyl)-1,2,4-oxadiazol-3-yl]phenyl]methyl] propane-1-sulfonamide]
[1]
  inhibition at 20 ppm: ≥ 80%

## CCN(Cc1ccc(-c2noc(C(F)(F)F)n2)cc1)S(=O)(=O)CC1CC1(Cl)Cl (stereo not shown) [Compound 1.31, 1-(2,2-dichlorocyclopropyl)-N-ethyl-N-[[4-[5-(trifluoromethyl)-1,2,4-oxadiazol-3-yl]phenyl]methyl] methanesulfonamide]
[1]
  inhibition at 20 ppm: ≥ 80%

## CCN(Cc1ccc(-c2noc(C(F)(F)F)n2)cc1)S(=O)(=O)N1CCCC1 [Compound 1.32, N-ethyl-N-[[4-[5-(trifluoromethyl)-1,2,4-oxadiazol-3-yl]phenyl]methyl] pyrrolidine-1-sulfonamide]
[2]
  pest or weed control at 200 ppm: ≥ 80%
[1]
  inhibition at 20 ppm: ≥ 80%

## CCN(Cc1ccc(-c2noc(C(F)(F)F)n2)cc1)S(=O)(=O)CCC(=O)OC [Compound 1.36, methyl 3-[ethyl-[[4-[5-(trifluoromethyl)-1,2,4-oxadiazol-3-yl]phenyl]methyl]sulfamoyl]propanoate]
[2]
  pest or weed control at 200 ppm: ≥ 80%
[1]
  inhibition at 20 ppm: ≥ 80%

## COCCS(=O)(=O)N(Cc1ccc(-c2noc(C(F)(F)F)n2)cc1)OC [Compound 1.40, N,2-dimethoxy-N-[[4-[5-(trifluoromethyl)-1,2,4-oxadiazol-3-yl]phenyl]methyl] ethanesulfonamide]
[1]
  inhibition at 20 ppm: ≥ 80%

## CN(Cc1ccc(-c2noc(C(F)(F)F)n2)cc1)S(=O)(=O)N1CCCC1 [Compound 1.44, N-methyl-N-[[4-[5-(trifluoromethyl)-1,2,4-oxadiazol-3-yl]phenyl]methyl] pyrrolidine-1-sulfonamide]
[2]
  pest or weed control at 200 ppm: ≥ 80%
[1]
  inhibition at 20 ppm: ≥ 80%

## CCCCS(=O)(=O)N(C)Cc1ccc(-c2noc(C(F)(F)F)n2)cc1 [Compound 1.55, N-methyl-N-[[4-[5-(trifluoromethyl)-1,2,4-oxadiazol-3-yl]phenyl]methyl] butane-1-sulfonamide]
[1]
  inhibition at 20 ppm: ≥ 80%

## COC(=O)CS(=O)(=O)N(Cc1ccc(-c2noc(C(F)(F)F)n2)cc1)OC [Compound 1.57, methyl 2-[methoxy-[[4-[5-(trifluoromethyl)-1,2,4-oxadiazol-3-yl]phenyl]methyl]sulfamoyl]acetate]
[2]
  pest or weed control at 200 ppm: ≥ 80%

## CNS(=O)(=O)N(Cc1ccc(-c2noc(C(F)(F)F)n2)cc1)OC [Compound 1.58, 3-[4-[[methoxy(methylsulfamoyl)amino]methyl]phenyl]-5-(trifluoromethyl)-1,2,4-oxadiazole]
[1]
  inhibition at 20 ppm: ≥ 80%

## CCCN(Cc1ccc(-c2noc(C(F)(F)F)n2)cc1)S(=O)(=O)CCC(=O)OC [Compound 1.72, methyl 3-[propyl-[[4-[5-(trifluoromethyl)-1,2,4-oxadiazol-3-yl]phenyl]methyl]sulfamoyl]propanoate]
[1]
  inhibition at 20 ppm: ≥ 80%

## C/C=C/S(=O)(=O)N(CCC)Cc1ccc(-c2noc(C(F)(F)F)n2)cc1 [Compound 1.75, (E)-N-propyl-N-[[4-[5-(trifluoromethyl)-1,2,4-oxadiazol-3-yl]phenyl]methyl] prop-1-ene-1-sulfonamide]
[1]
  inhibition at 20 ppm: ≥ 80%

## CCCN(Cc1ccc(-c2noc(C(F)(F)F)n2)cc1)S(=O)(=O)Cc1ccccc1 [Compound 1.77, 1-phenyl-N-propyl-N-[[4-[5-(trifluoromethyl)-1,2,4-oxadiazol-3-yl]phenyl]methyl] methanesulfonamide]
[1]
  inhibition at 20 ppm: ≥ 80%

## CCCN(Cc1ccc(-c2noc(C(F)(F)F)n2)cc1)S(=O)(=O)CC [Compound 1.78, N-propyl-N-[[4-[5-(trifluoromethyl)-1,2,4-oxadiazol-3-yl]phenyl]methyl] ethanesulfonamide]
[1]
  inhibition at 20 ppm: ≥ 80%

## CON(Cc1ccc(-c2noc(C(F)(F)F)n2)cc1)S(=O)(=O)c1ccn(C)n1 [Compound 1.88, N-methoxy-1-methyl-N-[[4-[5-(trifluoromethyl)-1,2,4-oxadiazol-3-yl]phenyl]methyl] pyrazole-3-sulfonamide]
[2]
  pest or weed control at 200 ppm: ≥ 80%

## C=CCS(=O)(=O)N(Cc1ccc(-c2noc(C(F)(F)F)n2)cc1)OC [Compound 1.92, N-methoxy-N-[[4-[5-(trifluoromethyl)-1,2,4-oxadiazol-3-yl]phenyl]methyl] prop-2-ene-1-sulfonamide]
[1]
  inhibition at 20 ppm: ≥ 80%

## C/C=C/S(=O)(=O)N(Cc1ccc(-c2noc(C(F)(F)F)n2)cc1)OC [Compound 1.94, (E)-N-methoxy-N-[[4-[5-(trifluoromethyl)-1,2,4-oxadiazol-3-yl]phenyl]methyl] prop-1-ene-1-sulfonamide]
[1]
  inhibition at 20 ppm: ≥ 80%

## CC(C)N(Cc1ccc(-c2noc(C(F)(F)F)n2)cc1)S(=O)(=O)Cc1ccccc1 [Compound 1.99, N-isopropyl-1-phenyl-N-[[4-[5-(trifluoromethyl)-1,2,4-oxadiazol-3-yl]phenyl]methyl) methanesulfonamide]
[1]
  inhibition at 20 ppm: ≥ 80%

## COC(=O)CS(=O)(=O)NCc1ccc(-c2noc(C(F)(F)F)n2)cc1 [Compound 2.11, methyl 2-[[4-[5-(trifluoromethyl)-1,2,4-oxadiazol-3-yl]phenyl]methyl-sulfamoyl] acetate]
[1]
  inhibition at 20 ppm: ≥ 80%

## COC(=O)CS(=O)(=O)NCc1ccc(-c2noc(C(F)(F)F)n2)c(F)c1 [Compound 2.20, methyl 2-[[3-fluoro-4-[5-(trifluoromethyl)-1,2,4-oxadiazol-3-yl]phenyl]methyl-sulfamoyl] acetate]
[1]
  inhibition at 20 ppm: ≥ 80%

## CCCCS(=O)(=O)NCc1ccc(-c2noc(C(F)(F)F)n2)cc1F [Compound 2.23, N-[[2-fluoro-4-[5-(trifluoromethyl)-1,2,4-oxadiazol-3-yl]phenyl]methyl] butane-1-sulfonamide]
[1]
  inhibition at 20 ppm: ≥ 80%

## Cc1ccc(S(=O)(=O)NCc2ccc(-c3noc(C(F)(F)F)n3)c(F)c2)s1 [Compound 3.15, N-[[3-fluoro-4-[5-(trifluoromethyl)-1,2,4-oxadiazol-3-yl]phenyl]methyl]-5-methyl-thiophene-2-sulfonamide]
[1]
  inhibition at 20 ppm: ≥ 80%

## O=S(=O)(Cc1ccccc1)NCc1ccc(-c2noc(C(F)(F)F)n2)c(F)c1 [Compound 3.22, N-[[3-fluoro-4-[5-(trifluoromethyl)-1,2,4-oxadiazol-3-yl]phenyl]methyl]-1-phenyl-methanesulfonamide]
[2]
  pest or weed control at 200 ppm: ≥ 80%

## O=S(=O)(Cc1ccccc1)NCc1ccc(-c2noc(C(F)(F)F)n2)cc1F [Compound 3.23, N-[[2-fluoro-4-[5-(trifluoromethyl)-1,2,4-oxadiazol-3-yl]phenyl]methyl]-1-phenyl-methanesulfonamide]
[2]
  pest or weed control at 200 ppm: ≥ 80%

## Cc1ccc(S(=O)(=O)NCc2ccc(-c3noc(C(F)(F)F)n3)cc2F)s1 [Compound 3.25, N-[[2-fluoro-4-[5-(trifluoromethyl)-1,2,4-oxadiazol-3-yl]phenyl]methyl]-5-methyl-thiophene-2-sulfonamide]
[1]
  inhibition at 20 ppm: ≥ 80%

## O=S(=O)(NCc1ccc(-c2noc(C(F)(F)F)n2)cc1F)c1ccccc1 [Compound 3.32, N-[[2-fluoro-4-[5-(trifluoromethyl)-1,2,4-oxadiazol-3-yl]phenyl]methyl] benzenesulfonamide]
[2]
  pest or weed control at 200 ppm: ≥ 80%
